According to US6110944A, “LTA4, hydrolase inhibitors” (G. D. Searle & Co., priority 1997, dated 2000):
Counter-ions that a name gives are not always drawn.

Tests used:
[1] = target: T1, recombinant human LTA hydrolase (rhLTAH) (Homo sapiens, UniProt P09960); experiment: Recombinant Human LTA Hydrolase Assay for LTA Hydrolase Inhibitor Activity; assay type: biochemical; conditions: 250 ng rhLTA4H, 10 min preincubation, room temperature, pH 7.4, 10 min reaction, immunoassay; read-out: Recombinant Human LTA4 Hydrolase Assay IC50 LTA4
T1 construct: made in house; host or cells: Spodoptera frugiperda Sf-9 cells (baculovirus AcNPV)
T1 sequence (P09960 1-611): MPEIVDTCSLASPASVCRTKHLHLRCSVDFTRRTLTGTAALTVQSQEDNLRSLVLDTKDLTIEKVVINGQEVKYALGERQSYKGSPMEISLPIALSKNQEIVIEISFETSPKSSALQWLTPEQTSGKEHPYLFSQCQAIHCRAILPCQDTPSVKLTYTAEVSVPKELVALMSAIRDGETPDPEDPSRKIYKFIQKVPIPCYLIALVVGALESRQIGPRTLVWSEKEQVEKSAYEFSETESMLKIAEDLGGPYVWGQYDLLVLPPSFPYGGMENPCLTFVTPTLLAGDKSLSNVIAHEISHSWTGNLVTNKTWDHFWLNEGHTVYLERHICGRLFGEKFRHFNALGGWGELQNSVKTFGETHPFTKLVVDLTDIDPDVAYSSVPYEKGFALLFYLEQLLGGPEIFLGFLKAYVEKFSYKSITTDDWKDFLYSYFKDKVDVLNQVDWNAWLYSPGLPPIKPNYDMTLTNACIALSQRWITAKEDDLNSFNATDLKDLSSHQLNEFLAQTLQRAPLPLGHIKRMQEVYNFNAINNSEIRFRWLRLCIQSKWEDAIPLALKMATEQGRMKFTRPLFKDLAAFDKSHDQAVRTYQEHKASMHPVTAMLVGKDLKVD
Experimental: Recombinant Human LTA Hydrolase Assay for LTA Hydrolase Inhibitor Activity
Compounds of the present invention were tested for LTA hydrolase inhibitor activity against recombinant human LTA hydrolase (rhLTAH). Recombinant human LTA hydrolase-encoding vectors were prepared and used to express rhLTAH essentially as described by J. Gierse, et al., Protein Expression and Purification, 4, 358-366 (1993). Briefly, LTA hydrolase encoding DNA was amplified by polymerase chain reaction using a pair of oligonucleotide primers based on the nucleotide sequence from the 5'-end, and the complement of the 3'-end, of the coding region of the LTA hydrolase gene, the nucleotide sequence of which gene is known. (See, C. Funk, et al., Proc. Natl. Acad. Sci. U.S.A. 84, 6677-6681 (1987)). A λgt11 human placental cDNA library (Clonetech, Palo Alto, Calif.) provided the nucleic acid template. […] The amplified 1.9 kb DNA was isolated and cloned into the genomic baculovirus, Autographa californica nuclear polyderosis virus (AcNPC) DNA, and the baculovirus expression vector was transfected into Spodoptera frugiperda Sf-9 cells employing the calcium phosphate co-precipitation method (see, M. Summers, et al., Tex. Agric. Exp. Stn. Bull. 1555, 1-57 (1987). Recombinant LTA4 hydrolase enzyme was purified from the transfected Sf-9 cells essentially as described by J. Gierse, et al., supra.
One or more predetermined amounts of a compound of the invention were incubated in assay buffer (0.1 M potassium phosphate, 5 mg/ml fatty acid free BSA, 10% DMSO, pH 7.4) for 10 minutes at room temperature with 250 ng of recombinant hLTA4 H to allow binding, if any, between the enzyme and inhibitor. The stock enzyme solution was 1 mg/m. LTA4 hydrolase, 50 mM Tris, pH 8.0, 150 mM NaCl, 2.5 mM beta-mercaptoethanol, 50% glycerol. The specific activity of the enzyme was about 650 nMoles/min/mg. LTA4 (i.e., substrate) was prepared from the methyl ester of LTA, (Biomol, Inc., Plymouth Meeting, Pa.) by treating the methyl ester with 30 molar equivalents of LiOH at room temperature for 18 hours. The LTA4 substrate in its free acid form was kept frozen at -80° C. until needed. LTA, (free acid) was thawed and diluted in assay buffer (minus DMSO) to a concentration of 350 ng/ml and 25 μl (8 ng) of LTA4 substrate was added to the reaction mixture (total volume of reaction mixture=200 μl at time zero. Each reaction was carried out at room temperature for 10 minutes. The reaction was stopped by diluting 25 μl of the reaction mixture with 500 μl of the assay buffer without DMSO. […] was quantified in the diluted sample by a commercially available enzyme-linked immunoassay [Caymen Chemical Col. Ann Arbor, Mich.] using the method recommended in the manufacturer's instructions and compared to the amount of […] produced in a negative control (i.e., essentially identical conditions except without addition of an inhibitor compound). The IC50 was routinely calculated from the data produced.

[2] = tested on: LTB4 production in calcium ionophore-stimulated human blood; experiment: LTB4 Production by Calcium Ionophore Stimulated Human Blood (HWB); assay type: cell-based; conditions: human blood diluted 1:4, 15 min preincubation at 37° C., ionophore 20 mcg/ml, 10 min; read-out: Inhibition of Calcium Ionophore-induced LTB4 Production in Human Blood IC50 HWB
Experimental: LTB4 and Thromboxane Production by Calcium Ionophore Stimulated Human Blood for LTB4 Hydrolase Inhibitor Activity
Human blood, collected in heparin-containing Vacutainer tubes, was diluted 1:4 with RPMI-1640 media and 200 μl of the diluted blood was added into each of a 96-well microtiter plate. One or more concentrations of the leukotriene A4 hydrolase inhibitor compounds being tested were prepared (diluted in DMSO) and 2 μl added and gently mixed with the diluted whole blood. After incubating for 15 minutes at 37° C. in a humidified incubator, calcium ionophore […] (Sigma Chemical Co., St. Louis, Mo.) was added to a final concentration of 20 mcg/ml and the incubation continued under the same conditions for an additional 10 minutes to allow LTB4 formation. The reaction was terminated by centrifugation (833 g, 10 minutes at 4° C.) and supernatant were analyzed for LTB4 and thromboxane by commercially available enzyme-linked immunoassays (Caymen Chemical Co., Ann Arbor, Mich.) according to the manufacturer's instructions. The IC50 of each test compound was determined from the amount of inhibition of LTB4 production as compared to an essentially identical assay in which no inhibitor compound was present.

[3] = tested on: LTB4 production in calcium ionophore-stimulated mouse blood; experiment: Murine Ex Vivo LTB4 Inhibition, calcium ionophore stimulated mouse blood after oral gavage; assay type: in vivo; conditions: blood collected 1 hour after administration, ionophore A23187 20 mcg/ml, read-out: Murine Ex Vivo LTB4 Inhibition % I LTB4 at 1 hour after administration of 10 mg/kg
Experimental: Ex Vivo LTB4 and Thromboxane Production by Calcium Ionophore Stimulated Mouse Blood for LTB4 Hydrolase Inhibitor Activity
Leukotriene A4 hydrolase inhibitor compounds of the present invention were diluted to a predetermined concentration in phosphate buffered saline containing 2%; DMSO and 1% Tween 80. The compounds were administered by oral gavage to adult male outbred mice weighing approximately 20-30 gm at a dose of 10 mg/kg body weight. (Compounds given at a dose of 50 mg/kg body weight are designated in following Table by the symbol, *) Sixty (60) minutes after administration of an LTA4 inhibitor compound of the invention, blood was collected (into heparin-containing tubes) from the retroorbital sinus. […] The mixture was incubated for 10 minutes at 37° C. in a humidified incubator. The reaction was terminated by centrifugation (833 g. 10 minutes at 4° C.). Supernatant were analyzed for LTB4 and thromboxane by commercially available enzyme-linked immunoassays [Caymen Chemical Co., Ann Arbor, Mich.] in accordance with the manufacturer's instructions. The percent inhibition was determined by comparison to animals treated identically except that the solution administered by oral gavage was devoid of inhibitor compound.

granulocyte = conditions: R. Lewis, et al., 1990; cited from earlier work
LTA4 hydrolase = conditions: background statement, no value; cited from earlier work

Row | Compound | IC50 [1] [µM] | IC50 [2] [µM] | inhibition at 10 mg/kg [3] [%] | granulocyte agonist activity inducing chemotaxis, aggregation, degranulation, adherence and priming (granulocyte) | LTA4 hydrolase inhibitory activity (LTA4 hydrolase)
1 | N=C(COc1ccc(Cc2ccccc2)cc1)N1CCCC1 [Example 3, α[[4-(phenylmethyl)phenoxy)methyl]-1-pyrrolidinemethanimine, monohydrochloride] | 0.004 | 0.053 | 46 |  | 
2 | N=C(COc1ccc(Cc2ccccc2)cc1)N1CCCCC1 [Example 4, α[[4-(phenylmethyl)phenoxy)methyl]-1-peperidinemethanimine, monohydrochloride] | 0.0043 | 0.085 | 30 |  | 
3 | CCOC(=O)C1CCN(C(=N)COc2ccc(Cc3ccccc3)cc2)CC1 [Example 5, ethyl 1-[1-imino-2-[4-(phenylmethyl)phenoxy]ethyl]-4-piperidinecarboxylate,monohydrochloride] | 0.0013 | 0.071 | 62 |  | 
4 | CCOC(=O)CCNC(=N)COc1ccc(Cc2ccccc2)cc1 [Example 6, ethyl 3-[[1-imino-2-[4-(phenylmethyl)phenoxy]ethyl]amino]propanoate, monohydrochloride] | 0.023 | 0.2 | 54 |  | 
5 | c1ccc(Cc2ccc(OCC3=NCCN3)cc2)cc1 [Example 7, 4,5-dihydro-2-[[4-(phenylmethyl)phenoxy]methyl]-1H-imidazole] | 0.07 | 0.22 | 33 |  | 
6 | COC(=O)CCN1CCN=C1COc1ccc(Cc2ccccc2)cc1 [Example 8] | 1.17 | 0.55 | 68 |  | 
7 | N=C(COc1ccc(Cc2ccccc2)cc1)N1CCC(C(N)=O)CC1 [Example 9, 1-[1-imino-2-[4-(phenylmethyl)phenoxy]ethyl]-4-piperidinecarboxamide] | 0.017 | 0.077 | 30 |  | 
8 | N=C(N)COc1ccc(Cc2ccccc2)cc1 [Example 10, 1-imino-2-[4-(phenylmethyl)phenoxy]ethanamine] | 0.089 | 0.48 | 0 |  | 
9 | N=C(COc1ccc(Cc2ccccc2)cc1)NC1C2CC3CC(C2)CC1C3 (stereo not shown) [Example 11, 2-[4-(phenylmethyl)phenoxy]-N-(tricyclo[3.3.1.1 3,7]decan-2-yl)ethanimidamide, monohydrate] | 7.8 |  |  |  | 
10 | NC(COc1ccc(Cc2ccccc2)cc1)=NO [Example 12, N'-hydroxy-2-[4-(phenylmethyl)phenoxy]ethanimidamine] | > 100 | 17.9 | 63 |  | 
11 | c1ccc(Cc2ccc(OCC3=NC4CCCCC4N3)cc2)cc1 (stereo not shown) [Example 13] | 0.2 | 0.19 | 71 |  | 
12 | N=C(CCCOc1ccc(Cc2ccccc2)cc1)N1CCCCC1 [Example 16, α-[3-[4-(phenylmethyl)phenoxy)propyl]-1-peperidinemethanimine, monohydrochloride] | 0.053 | 0.64 | 60 |  | 
13 | c1ccc(Cc2ccc(OCCCC3=NCCN3)cc2)cc1 [Example 17] | 0.064 | 0.64 | 28 |  | 
14 | CCCCC/C=C\C[C@@H](O)/C=C/C=C/C=C\[C@@H](O)CCCC(=O)O [LTB4] |  |  |  | potent granulocyte agonist | 
15 | CC(C)C[C@H](NC(=O)[C@@H](O)[C@H](N)Cc1ccccc1)C(=O)O [bestatin] |  |  |  |  | exhibit LTA4 hydrolase inhibitory activity
16 | C[C@H](CS)C(=O)N1CCC[C@H]1C(=O)O [captopril] |  |  |  |  | exhibit LTA4 hydrolase inhibitory activity
